Experimental data taken from US5348743A, “Anti-pathogenically effective compositions comprising lytic peptides and hydrolytic enzymes” (priority 1993, dated 1994).
Read-outs that look alike come from different tables or passages of the source.

Tests used:
S. nodorum = experiment: Inhibitory effect of lytic peptides and hydrolytic enzymes against S. nodorum (microtiter plates, liquid pea medium, absorbance at 595 nm); assay type: cell-based, Septoria nodorum
Protocol: Microtiter plates were selected to investigate the inhibitory effect of lytic peptides and hydrolytic enzymes against S. nodorum. Test substances were added to 90 ul liquid pea medium which had been previously inoculated with 2.0×10^4 spores/ml medium of the test pathogen to give a final volume of 100 ul. The blank value of the test substances were determined by adding them to uninoculated liquid pea medium. The plates were evaluated after incubation in a wet chamber at 23° C. on a shaker in the dark for 48 hours.
a. Hydrolytic enzymes were purified from ethylene-treated bean leaves by the procedure described in Example 1.
b. Lytic peptides: The following antimicrobial peptides were tested at 20 ppm, 60 ppm and 200 ppm concentrations:
d. Combinations of test substances: Table 3 illustrates the composition of test solutions which were tested in duplicate/triplicate samples.
e. Evaluation: The growth of the pathogen was recorded by measuring the absorbance of the medium at 595 nm. The average of duplicate/triplicate samples was calculated and the corresponding enzyme blank was subtracted to give the net absorption of the growing mycelium. The inhibitory effect of the test substances used was determined by calculating the growth of the pathogen as a percentage of water control.

beta-1,3-glucanase [1] = conditions: Burri (1989), average of five ethylene treatments; cited from earlier work
beta-1,3-glucanase [2] = assay type: biochemical, Phaseolus vulg. L. cv. saxa
Protocol: (§1) Seeds of Phaseolus vulg. L. cv. saxa were grown in vermiculite under a 16 hr light: 8 hr dark regime at 20° C. Twelve day old bean plants were incubated in air-tight plastic chambers with a volume of 0.2 m^3. Control plants were incubated in identical chambers in ethylene-free air. After 48 hours, the primary leaves were harvested and frozen at -20° C.
(§2) 0.6597 kg frozen leaf tissue was homogenized in 0.1M sodium citrate buffer at pH 5.0 (2 ml×g^-1 fresh weight) with a Turmix homogenizer at top speed. The homogenate was centrifuged (25 Min., 11000 g) and 100 ml of the supernatant were used as a crude enzyme preparation. The proteins in the remaining crude extract were precipitated by adding ammonium sulfate to 95% saturation. After centrifugation (30 min., 11000 g) the sediment was redissolved in 100 mM Tris/HCl pH 8.0 and dialyzed against 5 mM Tris/HCl pH 8.0.
Beta-1,3-glucanase activity was measured as described by Dygert et al., Analyt. Biochem., 13:367-374 (1965).

chitinase [3] = conditions: Burri (1989), average of five ethylene treatments; cited from earlier work
chitinase [4] = assay type: biochemical, Phaseolus vulg. L. cv. saxa
Protocol: as §1, §2
Chitinase activity was measured as described by Molano et al. (1977).

Molecule: GIGKFLHSAK KFGKAFVGI MNS [SYNTHETIC PEPTIDE NO. 3]
- FUNGAL GROWTH IN PERCENTAGE OF CONTROL (S. nodorum; test solution 5: lytic peptide 20 ppm alone, 48 hours, 23° C.): 80.35 percentage of control
- FUNGAL GROWTH IN PERCENTAGE OF CONTROL (S. nodorum; test solution 6: lytic peptide 60 ppm alone, 48 hours, 23° C.): 73.51 percentage of control
- FUNGAL GROWTH IN PERCENTAGE OF CONTROL (S. nodorum; test solution 7: lytic peptide 200 ppm alone, 48 hours, 23° C.): 65.96 percentage of control
- FUNGAL GROWTH IN PERCENTAGE OF CONTROL (S. nodorum; test solution 12: lytic peptide 20 ppm + chitinase 1/10 c): 68.42 percentage of control
- FUNGAL GROWTH IN PERCENTAGE OF CONTROL (S. nodorum; test solution 13: lytic peptide 60 ppm + chitinase 1/10 c): 63.51 percentage of control
- FUNGAL GROWTH IN PERCENTAGE OF CONTROL (S. nodorum; test solution 14: lytic peptide 200 ppm + chitinase 1/10 c): 61.75 percentage of control
- FUNGAL GROWTH IN PERCENTAGE OF CONTROL (S. nodorum; test solution 15: lytic peptide 20 ppm + chitinase 1/100 c): 77.89 percentage of control
- FUNGAL GROWTH IN PERCENTAGE OF CONTROL (S. nodorum; test solution 16: lytic peptide 60 ppm + chitinase 1/100 c): 71.58 percentage of control
- FUNGAL GROWTH IN PERCENTAGE OF CONTROL (S. nodorum; test solution 17: lytic peptide 200 ppm + chitinase 1/100 c): 64.21 percentage of control
- FUNGAL GROWTH IN PERCENTAGE OF CONTROL (S. nodorum; test solution 18: lytic peptide 20 ppm + beta-1,3-glucanase 1/10 c): 46.67 percentage of control
- FUNGAL GROWTH IN PERCENTAGE OF CONTROL (S. nodorum; test solution 19: lytic peptide 60 ppm + beta-1,3-glucanase 1/10 c): 30.88 percentage of control
- FUNGAL GROWTH IN PERCENTAGE OF CONTROL (S. nodorum; test solution 20: lytic peptide 200 ppm + beta-1,3-glucanase 1/10 c): 27.89 percentage of control
- FUNGAL GROWTH IN PERCENTAGE OF CONTROL (S. nodorum; test solution 21: lytic peptide 20 ppm + beta-1,3-glucanase 1/100 c): 65.26 percentage of control
- FUNGAL GROWTH IN PERCENTAGE OF CONTROL (S. nodorum; test solution 22: lytic peptide 60 ppm + beta-1,3-glucanase 1/100 c): 63.51 percentage of control
- FUNGAL GROWTH IN PERCENTAGE OF CONTROL (S. nodorum; test solution 23: lytic peptide 200 ppm + beta-1,3-glucanase 1/100 c): 53.68 percentage of control
- FUNGAL GROWTH IN PERCENTAGE OF CONTROL (S. nodorum; test solution 24: lytic peptide 20 ppm + chitinase 1/10 c + beta-1,3-glucanase 1/10 c): 9.47 percentage of control
- FUNGAL GROWTH IN PERCENTAGE OF CONTROL (S. nodorum; test solution 25: lytic peptide 60 ppm + chitinase 1/10 c + beta-1,3-glucanase 1/10 c): 8.42 percentage of control
- FUNGAL GROWTH IN PERCENTAGE OF CONTROL (S. nodorum; test solution 26: lytic peptide 200 ppm + chitinase 1/10 c + beta-1,3-glucanase 1/10 c): 3.86 percentage of control
- FUNGAL GROWTH IN PERCENTAGE OF CONTROL (S. nodorum; test solution 27: lytic peptide 20 ppm + chitinase 1/100 c + beta-1,3-glucanase 1/100 c): 40.7 percentage of control
- FUNGAL GROWTH IN PERCENTAGE OF CONTROL (S. nodorum; test solution 28: lytic peptide 60 ppm + chitinase 1/100 c + beta-1,3-glucanase 1/100 c): 36.49 percentage of control
- FUNGAL GROWTH IN PERCENTAGE OF CONTROL (S. nodorum; test solution 29: lytic peptide 200 ppm + chitinase 1/100 c + beta-1,3-glucanase 1/100 c): 31.23 percentage of control

Molecule: C=C [ethylene]
- absolute beta-1,3-glucanase activity (beta-1,3-glucanase [1]): 76.00±6.77 nkatal/ml extract
- Specific beta-1,3-glucanase activity (beta-1,3-glucanase [2]): 28.72
- absolute beta-1,3-glucanase activity (beta-1,3-glucanase [2]): 34.21
- induction of beta-1,3-glucanase in bean leaves (beta-1,3-glucanase [2]): strong induction
- absolute chitinase activity (chitinase [3]): 88.86±6.65 nkatal/ml extract
- Specific chitinase activity (chitinase [4]): 45.95
- absolute chitinase activity (chitinase [4]): 54.71
- induction of chitinase in bean leaves (chitinase [4]): strong induction
